# Data published in patent US8618077B2, “Compositions and methods for treating fragile X premutation RVGG repeats-mediated toxicity” (Emory University, priority 2011, dated 2013).
# Experiments:
# dFmr1 CGG90 mutant flies = assay: Locomotion assay (Drosophila Activity Monitor) in flies expressing rCGG90 repeats (UAS-CGG90-EGFP/nervana-GAL4); type: in vivo; details: for percentage of normal locomotion activity in dFmr1 CGG90 mutant flies: compound-treated flies, 50% without treatment; for effect on locomotion deficits caused by fragile X premutation rCGG repeats (in words): flies fed food containing the compound, mean locomotor activity over 7 days
# Description: FIG. 2A illustrates the identification of small molecules that can ameliorate the locomotion deficits caused by fragile X premutation rCGG repeats. Nervana-GAL4 driver and UAS-CGG90-EGFP/Cyo were crossed to produce progeny embryos on food supplemented with or without selected compounds as indicated. Adult progeny of genotype UAS-CGG90-EGFP/nervana were selected and 32 female virgins 48 h old were subsequently monitored for locomotor activity continuously for several weeks. The locomotion of 32 flies that were fed with fly food containing the compound each time were simultaneously monitored.
# To further validate these compounds, a secondary behavioral assay was developed. In this assay, UAS-CGG90-EGFP transgenic flies were crossed with nervana-GAL4, which could drive the expression of fragile X rCGG repeats in CNS, albeit weakly, allowing us to analyze adult flies for locomotion deficits. The expression of rCGG repeats leads to locomotion defects (FIG. 2A). […] The progeny flies (UAS-CGG90-EGFP/nervana-GAL4) were collected to monitor locomotion. To continuously monitor the locomotion for a given fly, a Drosophila Activity Monitor (DAM) system was established for this purpose. See Pfeiffenberger et al., Locomotor activity level monitoring using the Drosophila Activity Monitoring (DAM) System. Cold Spring Harb. Protoc. 2010.
# For each individual compound, the locomotion of 32 flies were simultaneously monitored that were fed with fly food containing the compound each time. The data were collected and analyzed for locomotor activity (FIG. 2B). Each drug treatment was repeated at least three times.
# [1] = system: flies expressing fragile X premutation rCGG repeats (elav-GAL4/+; UAS-CGG90-EGFP/+); assay: Chemical screen / viability assay: rescue of lethality caused by neuronal expression of fragile X premutation rCGG90 repeats; type: in vivo, Drosophila; details: for recovery of dFmr1 CGG90 mutant flies: 40 microM of compound in the food, 0% on food alone
# Description: In particular, embodiments of the present disclosure include methods of screening compounds using a drosophila (fruit fly) based compound screen to identify drug candidates for the treatment of the fragile X-associated tremor/ataxia syndrome or other neurodegenerative disorders. […] A fly line of UAS-CGG90-EGFP transgene balanced with Cyo balancer carrying hs-hid transgene was generated. Upon heat shock, the expression of hid was activated, which led to cell death and lethality in the CGG90 dFmr1 premutation fly embryos.
# The mutant embryos were placed into an appropriate container (e.g., a 96-well container) containing a food with or without a compound from a library of drugs candidates. 5 μM and 40 μM of individual compounds from a library of 2,000 FDA approved drugs and natural products (The Spectrum Collection™) were screened. Vials were then kept at 25° C. for 10 to 15 days to score for viability. The efficacy of the drug candidate was determined by scoring the number of pupae formation or the emergence of adult flies after a certain time frame. Embodiments of the present disclosure provide a screen for compounds that directly and indirectly regulate dFmr1 rCGG repeat mediated toxicity and rescue mutant flies from heat shock induced lethality. Additional details regarding the active compositions and disorders are described in the Examples below.
# A Drosophila disease model of FXTAS and provided experimental evidence that fragile X premutation rCGG repeats alone are sufficient to cause neurodegeneration in a repeat-dosage manner. See Jin et al., Neuron, 2003, 39:739-747. […] Lethality occurs primarily during embryonic development before larval formation. Taking advantage of this lethality, a high-throughput strategy was designed to screen chemical libraries for small molecules relevant to FXTAS. the UAS-CGG90-EGFP transgene was balanced with a chromosome carrying a curly wing (Cyo) marker recombined with a heat shock-inducible apoptotic hid (hs-hid) transgene (w1118, UAS-CGG90-EGFP/TM2 Cyo:hs-hid). Next, the viability of adult progeny was tested using the Drosophila GAL4/UAS system. crosses of UAS-CGG90-EGFP/TM2 Cyo:hs-hid were performed with homozygous pan-neuronal elav-Gal4 driver. There was an absence of heterozygous non-Cyo adult progeny (elav-GAL4/+; UAS-CGG90-EGFP/+), which confirmed that rCGG90 repeat expression in neurons leads to lethality. The only living progenies would carry elav-GAL4/+; +/TM2 Cyo:hs-hid. Furthermore, upon heat shock, the progenies carrying elav-GAL4/+; +/TM2 Cyo:hs-hid also died, because the expression of hid leads to cell death and lethality at embryonic stages that are otherwise viable.
# Since the rescue of the lethality was an easily scored phenotype, one is able to use this assay to conduct a chemical screen to identify the small molecules that can improve/restore the viability of the flies expressing fragile X premutation rCGG repeats. As depicted in schematic representation (FIG. 1A), crosses between elav-GAL4 and UAS-CGG90-EGFP/TM2 Cyo:hs-hid were raised as well as control flies into food supplemented with 40 μm of individual unique compounds from a library of 2000 US Food and Drug Administration (FDA)-approved drugs and natural products (The Spectrum Collection, MicroSource Discovery Systems, Inc.). […]
# [2] = system: release of arachidonic acid; details: cited from earlier work
SMILES,percentage of normal locomotion activity in dFmr1 CGG90 mutant flies (dFmr1 CGG90 mutant flies),effect on locomotion deficits caused by fragile X premutation rCGG repeats (in words) (dFmr1 CGG90 mutant flies),effect on locomotion deficits caused by fragile X premutation rCGG repeats (in words) (dFmr1 CGG90 mutant flies; listed as Fluocinolone acetonide),effect on locomotion deficits caused by fragile X premutation rCGG repeats (in words) (dFmr1 CGG90 mutant flies; listed as fluocinolone acetonide),recovery of dFmr1 CGG90 mutant flies [1],"suppression of lethality caused by fragile X premutation rCGG repeats (in words) ([1]; 40 μm compound in food, heat shock at day 2, scored after 10-15 days)",effect on locomotion deficits caused by fragile X premutation rCGG repeats (in words) (dFmr1 CGG90 mutant flies; listed as xylazine),release of arachidonic acid [2]
CC1(C)O[C@@H]2C[C@H]3[C@@H]4C[C@H](F)C5=CC(=O)C=C[C@]5(C)[C@@]4(F)[C@@H](O)C[C@]3(C)[C@]2(C(=O)CO)O1 [fluocilone acetonide],99%,significant suppression of the locomotion activity deficit,significantly ameliorate the locomotion defects,suppress both lethality and locomotion deficits,7.5%,suppress both lethality and locomotion deficits,,
COc1ccc(C(=O)/C=C/c2ccccc2)cc1 [4′-methoxy chalcone],75%,significant suppression of the locomotion activity deficit,,,3%,,,
Cc1cccc(C)c1N=C1NCCCS1 [xylaxine],80%,significant suppression of the locomotion activity deficit,,,5%,,significantly ameliorate the locomotion defects,
CCN(CC)CCCC(C)Nc1c2ccc(Cl)cc2nc2ccc(OC)cc12 (stereo not shown) [quinacrine],,,,,,,,blocked
C[C@@H]1C[C@H]2[C@@H]3CCC4=CC(=O)C=C[C@]4(C)[C@@]3(F)[C@@H](O)C[C@]2(C)[C@@]1(O)C(=O)CO [dexamethasone],90%,,,,5%,,,
